Columns and labels:
[1] = Linear regression of covariates versus post hoc steady-state AUC, ALTA-1L; type: in vivo, human; settings: for Percentage change in steady-state AUC relative to value at median covariate [95% CI] / Percentage change in median AUC (with 95% CI) relative to the most common reference category: 180 mg once daily
Experimental: (§1) Diagnostic plots were created to compare brigatinib PK in patients in ALTA‐1L (first‐line setting) and ALTA (second‐line setting). […] In exploratory analyses, relationships between covariates of interest and model‐based exposure estimates were evaluated using linear regression models with each covariate as a predictor.

[2] = Population PK model (Bayesian re-estimation), brigatinib arm of ALTA-1L (first-line); type: in vivo, human; settings: geometric mean (5th and 95th percentiles)
Experimental: The population PK and exposure‐response analyses evaluated data from the brigatinib arm (180 mg q.d. with a 7‐day lead‐in at 90 mg q.d.) of the ALTA‐1L trial (second interim analysis, data cutoff date: June 28, 2019).[8] […] Blood samples for measurement of brigatinib plasma concentrations were obtained predose on day 1 of cycle one (28 day/cycle); predose and 1, 4, and 6 to 8 h postdose on day 1 of cycle two; and predose and any time between 1 and 8 h postdose on day 1 of cycles three, four, and five. Plasma samples were analyzed for brigatinib concentrations using a validated liquid chromatography/tandem mass spectrometry assay with a lower limit of quantification of 5 ng/mL. Efficacy assessments were based on computed tomography or magnetic resonance imaging performed at screening, every 8 weeks through cycle 14, and then every 12 weeks through treatment discontinuation.[8] Safety data were collected as they were reported.
(§2) The previously developed population PK model[11] was used for population PK analyses of ALTA‐1L data. The previous analysis provided a robust and comprehensive characterization of brigatinib PK and sources of variability. Importantly, the previous analysis included 202 patients with ALK+ NSCLC that progressed on other ALK TKIs, representing a similar patient population to patients receiving first‐line brigatinib in ALTA‐1L. These considerations supported a Bayesian re‐estimation approach for deriving individual brigatinib PK parameters in ALTA‐1L using the previously reported model, and the model was applied without modification. In brief, the population PK model described brigatinib PK using a three‐compartment model with linear distribution and elimination kinetics and first‐order absorption preceded by a set of transit compartments.[11] The model included albumin concentration as a covariate on apparent oral clearance (CL/F). Bayesian re‐estimation was performed by setting initial model conditions to values of fixed effects and random effect variances previously estimated,[11] allowing for estimation of individual PK parameters based on the PK observations in the ALTA‐1L dataset.
as §1

[3] = Population PK model post hoc estimates, ALTA (second-line); type: in vivo, human; settings: geometric mean (5th and 95th percentiles); ALTA n = 201
From the text: as §2, §1

[4] = system: advanced ALK+ NSCLC that progressed on crizotinib; settings: ALTA, cited from earlier work
[5] = in ALTA and ALTA-1L; cited from earlier work
[6] = system: advanced ALK inhibitor-naive ALK+ NSCLC; settings: cited from earlier work
[7] = design: method as in earlier work; settings: after administration of 180 mg q.d.; cited from earlier work
[8] = system: ALK+ NSCLC; assay: Exposure-PFS analysis (Kaplan-Meier, Cox PH models), ALTA-1L; type: in vivo, human
Experimental: Model‐based estimates of CL/F and actual dosing history were used to derive exposure metrics of interest. Several exposure metrics were considered, including both static and dynamic area under the concentration‐time curve (AUC) estimates (Methods S1).
First, the relationship between PFS and two static exposure metrics, time‐averaged AUC between the last two disease assessment scans preceding progression or censoring and time‐averaged AUC until progression, was evaluated. These exposure‐PFS relationships were characterized by a proportional hazard (PH) model relating exposure to the hazard of PFS. The hazard function was expressed as: (1) λt=λ0te^β^TXi where λ 0 (t) is the baseline hazard function and Xi is a vector of predictor variables for an individual patient. The parameter vector β was estimated by maximum partial likelihood and captures the effect of exposure and/or additional covariates on the hazard of disease progression.
Next, the relationship between PFS and two dynamic exposure metrics, daily time‐varying AUC between the last two disease assessment scans preceding progression or censoring and daily time‐varying AUC until progression, was evaluated. These analyses used a time‐dependent covariate Cox PH model relating time‐dependent exposure to PFS. The hazard function was expressed as: (2) λt=λ0te^β1×AUCDt+β^TXi where model parameters were as above in Equation 1, except that exposure (AUCDt ) was a time‐dependent predictor rather than a constant for each patient.
For each static exposure‐PFS analysis, Kaplan‐Meier (KM) plots of PFS probability over time were generated and stratified by brigatinib exposure quartiles. Crizotinib PFS curves were overlaid for comparison.
Dynamic daily time-averaged AUC between successive disease assessment scans preceding the event or censoring for PFS, obtained as the average of daily AUCs within each scan interval.
Time averaged AUC until PFS= Cumulative dose to progressionOral brigatinib clearance/ (days to progression)

[9] = Exposure-safety analysis and AE incidence, ALTA-1L; type: in vivo, human
From the text: […] AEs of interest selected for analysis included eight grade two or higher AEs (increased alanine aminotransferase [ALT], AST, or amylase; hyperglycemia; hypertension; bradycardia; rash; and pulmonary events [pneumonitis or ILD]), five grade three or higher AEs (increased CPK, AST, ALT, amylase, and lipase), and a composite grade three or higher AE end point that included grade three or higher CPK, AST, ALT, amylase, or lipase elevations; hyperglycemia; hypertension; bradycardia; rash; and pulmonary events.
AEs were included in the analysis if they occurred any time between the first day of brigatinib dosing and 30 days after the last dose. AEs were defined according to the National Cancer Institute Common Toxicity Criteria for Adverse Events version 4.03. The relationship between time‐averaged exposure and AE probability was examined using the same logistic regression models described for the exposure–clinical response analyses. Probability of an AE was plotted against exposure, with observed probabilities calculated by exposure quartiles.
The relationship between brigatinib exposure and time to first brigatinib dose reduction was also explored. A KM plot of time to first brigatinib dose reduction was generated, with survival curves binned by brigatinib exposure quartiles, where exposure was defined as the time‐averaged AUC to the first occurrence of dose reduction.

[10] = 180 mg q.d. with 7-day lead-in at 90 mg q.d.
[11] = patients with measurable baseline brain metastases

Structure (SMILES): COc1cc(N2CCC(N3CCN(C)CC3)CC2)ccc1Nc1ncc(Cl)c(Nc2ccccc2P(C)(C)=O)n1 [brigatinib]
- Percentage change in steady-state AUC relative to value at median covariate [95% CI] ([1]; ALT, 5th percentile): 0 [-6; 4] %
- Percentage change in steady-state AUC relative to value at median covariate [95% CI] ([1]; ALT, 95th percentile): 2 [-21; 28] %
- Percentage change in steady-state AUC relative to value at median covariate [95% CI] ([1]; AST, 5th percentile): -4 [-9; 4] %
- Percentage change in steady-state AUC relative to value at median covariate [95% CI] ([1]; AST, 95th percentile): 11 [-11; 38] %
- Percentage change in steady-state AUC relative to value at median covariate [95% CI] ([1]; age, 5th percentile): -26 [-39; -15] %
- Percentage change in steady-state AUC relative to value at median covariate [95% CI] ([1]; age, 95th percentile): 27 [15; 43] %
- Percentage change in steady-state AUC relative to value at median covariate [95% CI] ([1]; albumin at baseline, 5th percentile): 3 [1; 14] %
- Percentage change in steady-state AUC relative to value at median covariate [95% CI] ([1]; albumin at baseline, 95th percentile): -2 [-5; 0] %
- Percentage change in steady-state AUC relative to value at median covariate [95% CI] ([1]; body weight, 5th percentile): 12 [3; 21] %
- Percentage change in steady-state AUC relative to value at median covariate [95% CI] ([1]; body weight, 95th percentile): -18 [-31; -5] %
- Percentage change in steady-state AUC relative to value at median covariate [95% CI] ([1]; eGFR, 5th percentile): 2 [-9; 14] %
- Percentage change in steady-state AUC relative to value at median covariate [95% CI] ([1]; eGFR, 95th percentile): -3 [-22; 15] %
- Percentage change in median AUC (with 95% CI) relative to the most common reference category ([1]; race: Asian (n = 53) vs White (n = 68)): -6 [-21; 12] %
- Percentage change in median AUC (with 95% CI) relative to the most common reference category ([1]; sex: Female (n = 60) vs Male (n = 63)): 15 [-3; 37] %
- Percentage change in steady-state AUC relative to value at median covariate [95% CI] ([1]; total bilirubin, 5th percentile): -11 [-24; 8] %
- Percentage change in steady-state AUC relative to value at median covariate [95% CI] ([1]; total bilirubin, 95th percentile): 17 [-12; 41] %
- Magnitude of relative difference in predicted AUC for each stratum compared with the most common stratum ([1]; categorical covariates (sex and race), ALTA-1L): less than 20%
- Magnitude of relative difference in predicted AUC at 5th and 95th percentiles relative to median of covariate ([1]; continuous covariates (age, eGFR, body weight, total bilirubin, AST, ALT), ALTA-1L): below 30%
- Variability in post hoc AUC, 5th and 95th percentiles relative to predicted AUC for a typical patient ([1]; overall ALTA-1L population, typical patient with albumin 41 g/L): −60% to +263
- Albumin covariate effect on CL/F ([2]; ALTA-1L n = 123): 1.03 (0.874, 1.13)
- CL/F ([2]; ALTA-1L n = 123): 8.45 (4.04, 17.8) L/h
- Mean transit time ([2]; ALTA-1L n = 123): 1.01 (0.538, 2.36) h
- Q2/F ([2]; ALTA-1L n = 123): 12.6 (12.6, 12.6) L/h
- Q3/F ([2]; ALTA-1L n = 123): 2.67 (2.67, 2.67) L/h
- V1/F ([2]; ALTA-1L n = 123): 160 (69.0, 302) L
- V2/F ([2]; ALTA-1L n = 123): 118 (46.5, 283) L
- V3/F ([2]; ALTA-1L n = 123): 78.5 (78.5, 78.5) L
- AUC ([2]; human, plasma, oral, maintenance dose 180 mg q.d., ALTA-1L, read-out: Daily steady-state post hoc AUC): 21300 ng·h/mL
- Albumin covariate effect on CL/F [3]: 0.939 (0.758, 1.09)
- CL/F [3]: 9.90 (4.06, 23.0) L/h
- Mean transit time [3]: 0.998 (0.584, 1.92) h
- Q2/F [3]: 12.6 (12.6, 12.6) L/h
- Q3/F [3]: 2.67 (2.67, 2.67) L/h
- V1/F [3]: 199 (86.0, 468) L
- V2/F [3]: 124 (78.3, 259) L
- V3/F [3]: 78.5 (78.5, 78.5) L
- IRC-assessed confirmed objective response rate (ORR) [4, 10]: 56%
- Median IRC-assessed progression-free survival (PFS) [4, 10]: 16.7 months
- IRC-assessed intracranial ORR (iORR) [4, 11]: 67%
- Median duration of (intracranial) response [4, 11]: 16.6 months
- Incidence of any-grade AEs of elevated amylase [5]: 15% to 18
- Hazard ratio versus crizotinib (superiority, PFS) ([6]; ALTA-1L first interim analysis, 95% CI: 0.33–0.74, p < 0.001): 0.49
- Early onset pulmonary events, patients ([6]; ALTA-1L): 3%
- Median PFS ([6]; ALTA-1L): ≥ 2 years
- Median time to first brigatinib dose reduction ([6]; ALTA-1L): ~ 2 years
- 2-year intracranial PFS rate ([6]; ALTA-1L, patients with any baseline brain metastases): 48%
- iORR ([6]; second ALTA-1L interim analysis, patients with measurable baseline brain metastases): 78%
- Mean plasma elimination half-life [7]: 25 h
- Cox PH ratio for PFS versus exposure ([8]; dynamic metric: daily time-averaged AUC between successive disease assessments preceding PFS event or censoring, p = 0.08): 1.02
- Cox PH ratio for PFS versus exposure ([8]; dynamic metric: daily time-varying AUC preceding progression or censoring, p = 0.69): 1.01 [0.98–1.03]
- HR [95% CI] of disease progression or death per one-unit increase in exposure (Cox PH model) ([8]; static metric: time-averaged AUC between the last two disease assessments, p = 0.01): 1.03 [1.01–1.05]
- Incidence of ALT increase, Grade ≥2 ([9]; n = 123): 18 (14.6) n (%)
- Incidence of ALT increase, Grade ≥3 ([9]; n = 123): 6 (4.9) n (%)
- Incidence of AST increase, Grade ≥2 ([9]; n = 123): 10 (8.1) n (%)
- Incidence of AST increase, Grade ≥3 ([9]; n = 123): 5 (4.1) n (%)
- Incidence of Amylase increase, Grade ≥2 ([9]; n = 123): 24 (19.5) n (%)
- Incidence of Amylase increase, Grade ≥3 ([9]; n = 123): 10 (8.1) n (%)
- Incidence of Bradycardia, Grade ≥2 ([9]; n = 123): 2 (1.6) n (%)
- Incidence of CPK increase, Grade ≥3 ([9]; n = 123): 32 (26.0) n (%)
- Incidence of Hyperglycemia, Grade ≥2 ([9]; n = 123): 2 (1.6) n (%)
- Incidence of Hypertension, Grade ≥2 ([9]; n = 123): 38 (30.9) n (%)
- Incidence of Lipase increase, Grade ≥3 ([9]; n = 123): 22 (17.9) n (%)
- Incidence of Pulmonary AEs (pneumonitis and interstitial lung disease), Grade ≥2 ([9]; n = 123): 2 (1.6) n (%)
- Incidence of Rash, Grade ≥2 ([9]; n = 123): 15 (12.2) n (%)
- Incidence of Any AE, Grade ≥3 ([9]; n = 123, composite of CPK, AST, ALT, amylase, lipase, hyperglycemia, hypertension, bradycardia, rash, pulmonary events): 64 (52.0) n (%)
- Odds ratio, grade ≥3 lipase increase per 1 µg·h/mL/day increase in exposure ([9]; time-averaged AUC across days 8 to 14 of cycle one, 95% CI: 1.00–1.10, p = 0.039): 1.05
- Odds ratio, grade ≥2 amylase increase per 1 µg·h/mL/day increase in exposure ([9]; time-averaged AUC across days 8 to 14 of cycle one, 95% CI: 1.01–1.11, p = 0.016): 1.06
- Estimated odds ratio, grade ≥3 lipase increase versus exposure ([9]; time-averaged AUC to first occurrence of an event, 95% CI: 0.99–1.07, p = 0.146): 1.03
- Estimated odds ratio, grade ≥2 amylase increase versus exposure ([9]; time-averaged AUC to first occurrence of an event, p = 0.094): 1.04 [0.99–1.09]
- Effect of exposure on time to first brigatinib dose reduction (KM plots by exposure quartiles) ([9]; time-averaged AUC to the first occurrence of dose reduction): did not show a discernible effect

— article PMC9099121, “Population pharmacokinetic and exposure‐response analyses from ALTA‐1L: Model‐based analyses supporting the brigatinib dose in ALK‐positive NSCLC” (Clinical and Translational Science, 2022)
